Experimental findings from patent publication US20240368605A1, “USE OF SPLICE SWITCHING OLIGONUCLEOTIDES FOR EXON SKIPPING-MEDIATED KNOCKDOWN OF PIM2” (INSTITUT NATIONAL DE LA SANTÉ ET DE LA RECHERCHE MÉDICALE, priority 2021, published 2024) are described below.

Assay [1] has as its system p21^Cip1/WAF1. The assay can be described thus: CDKN1A gene and p21^Cip1/WAF1 protein expression in PBs. Type of assay: cell-based, human. To be noted: PBs treated conjointly by MG-132 and PIMi. An excerpt:
(§1) Like p27^Kip1, p21^Cip1/WAF1 is a tight-binding inhibitor of CDKs and inhibits cell cycle entry into S phase (Elledge et al., 1996). Plasmablast commitment leads to a significant increase of the CDKN1A gene, which encodes p21^Cip1/WAF1, and this independently to the expression of TP53 (data not shown). […] We then wondered whether PIM2 could modify p21^Cip1/WAF1 expression. […] To address this scenario, we developed endogenous protein immunoprecipitation (IP) and found in generated PBs and XG21 cell line as well that PIM2, p21^Cip1/WAF1 and HSP90β form a cytoplasmic multiprotein complex (data not shown).

In the next assay the test system is CDC25A. The assay is described as follows: CDC25A protein in PBs by western blot. Type of assay: cell-based, human. An excerpt:
(§2) Since PIM2 acts at multiple cellular levels, we wanted to investigate how this kinase impacts this step of the differentiation. […] To explore this hypothesis, we investigated the G1/S transition of the cell cycle by using the multiple myeloma-derived cell line XG21 which presents an IL-6/STAT3-dependent PIM2 expression and proliferation (data not shown). To this end, we established a double thymidine block to arrest cells in G1-phase, and then released thymidine before subsequent cell cycle analysis. […] In presence of PIM2 blockade regardless of the type of inhibition, cells remained largely arrested in G1 phase until 16 h before starting to die (data not shown). The transition of G1 to S phase of the cell cycle requires the phosphatase CDC25A. We found a significant increase of CDC25A gene expression in PBs compared to CD23+ aBC and chemical inhibition of the phosphatase led to a dramatic decrease of the number of PBs in S phase (data not shown). We then wondered whether PIM2 has an effect on CDC25A as described for PIM1 which increased the catalytic activity after its binding to the phosphatase (Mochizuki et al., 1999). By western blot we detected CDC25A protein in PBs which disappeared in presence of PIMi (data not shown). PIM2 blockade led also to the downregulation of CDC25A and MKI67 gene expression (data not shown).

In the next assay the test system is MM. The assay can be described thus: Combinations of increasing drug-concentration of PIM inhibitor and MCL1 inhibitor. It counts as cell-based. The note with it: increasing concentrations of both drugs.
The subject of another assay is ePCs. The assay can be described thus: Apoptosis markers in early plasma cells (ePCs) by western blot. It counts as cell-based, human. An excerpt:
Plasma cell maturation is a continuum that spans from PBs to fully mature PCs corresponding to long-lived PCs such as those residing in the bone marrow (BM) PC niche where their survival depends on various extrinsic factors. […] We then explored PIM2 expression at the protein level in CD138^+ or BCMA^+ PCs on BM biopsies from patients free from malignant hemopathies obtained from the Pathology department of our institution (F. Llamas-Gutierrez). Single staining was firstly tested by chromogenic immunohistochemistry (CIH) or immunofluorescence (IF) on paraffin-embedded tissue sections followed by multiple staining by IF. Both, CD138 and BCMA staining allowed to identify PCs with, in some areas, high number of positive cells that possibly were close from CD41-positive megakaryocytes and enriched for IL-6 expression (data not shown). In addition, all observed BM PCs expressed PIM2 with a strong intensity (data not shown). To determine the regulation and functional contribution of PIM2 in mature PCs, we produced CD38^hi/CD138^+ PCs by leaving D7 to D10 generated PBs in culture media containing IL-2, IL-10, IL-6 and IFN-alpha (data not shown). Under this condition, the number of CD138^+ cells increased progressively while the number of cells in S-phase of the cell cycle decreased gradually with, respectively, 60.3±8.1% and 3.5±0.3% at D10 (data not shown). In parallel, cells decreased and increased, respectively, the expression of CDC25A and CDKN1B with for the latter, p27^Kip1 protein exclusively detectable in the nucleus at D10 as expected for fully differentiated cells arrested in the cell cycle (data not shown). […] In addition, in these cells, compared to PBs, we observed an increase of PIM2 gene expression as well as its protein level (data not shown).
We then investigated the other factors described above at the protein levels and detected by western blot in ePCs compared to PBs—and besides p27^Kip1 and PIM2—a significant elevation of Caspase 3 and p21^Cip1/WAF1 protein expression (data not shown).
(Immunoblotting shows a protein as a band on a membrane.)

Assay [2] has as its system p21^Cip1/WAF1/Procaspase 3 complex. The assay is described as follows: FRET between p21^Cip1/WAF1 and Procaspase 3. It counts as cell-based. The note with it: added to the cell culture. An excerpt:
(§3) The differentiation of immature monocytes is associated with a relocalization of nuclear p21^Cip1/WAF1 to the cytoplasm where the protein participates to apoptosis blockage (Asada, 1999). In addition, Suzuki et al. ascribed the formation of a Procaspase 3/p21^Cip1/WAF1 complex in the context of resistance to Fas-mediated cell death owing to the phosphorylation of p21 by protein kinase A (Suzuki et al., 2000). We wanted therefore to explore whether p21^Cip1/WAF1 may bind Procaspase 3 and developed to this end a FRET approach which detected a signal of energy transfer compatible with such physical interaction. […] We then confirmed the binding between p21^Cip1/WAF1 and Caspase 3 in XG21 cells and in PBs by IP (data not shown). Finally, to confirm the anti-apoptotic role of cytoplasmic p21^Cip1/WAF1 in PBs we inhibited p21^Cip1/WAF1 expression by a siRNA targeting CDKN1A in in vitro D4 B cells (data not shown) and found an activation of the execution of apoptosis characterized by the detection of the p17-fragment cleavage of caspase 3 in parallel to the cleavage of PARP (data not shown) and similar results were found in XG21 cells (data not shown). […] The role of PIM2 is to stabilize p21^Cip1/WAF1 protein in the cytoplasm allowing therefore the formation a multiprotein complex which inhibits Caspase 3 full activation (data not shown).

Assay [3] has as its system PBs. The assay can be described thus: Number of PBs in S-phase of the cell cycle. Type of assay: cell-based, human.
Excerpt: as §2

For assay [4], the system named is PBs. The assay is described as follows: Mitochondria/Caspase 3-driven apoptosis and viability of PBs. Type of assay: cell-based, human.
Excerpt: Mitochondrial-driven cell death is activated once the mitochondria lose the ability to maintain the inner membrane potential, resulting in the release of proapoptotic proteins into the cytosol. Commitment towards PBs is sustained by an extensive reconfiguration of the epigenetic landscape and of gene expression patterns, both showing that the most prominent function involves cell death and survival (Caron et al., 2015). […] We then investigated the different cell subsets generated through the differentiation model at the protein level for factors involved in apoptosis triggered by mitochondria (data not shown). The PBs compared to all other subsets increased the expression of pBAD and XIAP, both proteins counteract the apoptotic pathway and were described in PIM2-induced survival effect (data not shown) (Fox, 2003; Macdonald et al., 2006; Yan et al., 2003). In accordance with this finding and despite a strong increase in procaspase 3 protein (32 kDa size), PBs decrease the autocatalytic activity of Caspase 3 and therefore the production of p19/p17 apoptosis executors as highlighted by the low levels of cleaved PARP (data not shown) (Ponder and Boise, 2019). […] In addition, we found in P2/CD23+ cells a complete degradation of PARP which illustrate the fact that the apoptosis process is consubstantially associated with the B cell terminal differentiation if cells are not otherwise protected (data not shown).
We then inhibited PIM2 which led to an intense activation of Caspase 3 and a decrease of viability of PBs. The latter was rescued by the Caspase 3 inhibitor Q-DEVD-OPH (data not shown).
as §3

Assay [5] has as its system p21^Cip1/WAF1. The assay can be described thus: p21^Cip1/WAF1 protein expression in XG21 cells. To be noted: XG21 cells treated conjointly by MG-132 and PIMi. It counts as cell-based, human.
Excerpt: as §1

Assay [6] relates to activated B cells diverted from the PB commitment. The assay is described as follows: Apoptosis of activated B cells diverted from the PB commitment at D6. Type of assay: cell-based, human. To be noted: D6, original in vitro model. An excerpt: Mitochondrial-driven cell death is activated once the mitochondria lose the ability to maintain the inner membrane potential, resulting in the release of proapoptotic proteins into the cytosol. Commitment towards PBs is sustained by an extensive reconfiguration of the epigenetic landscape and of gene expression patterns, both showing that the most prominent function involves cell death and survival (Caron et al., 2015). […] We then investigated the different cell subsets generated through the differentiation model at the protein level for factors involved in apoptosis triggered by mitochondria (data not shown). The PBs compared to all other subsets increased the expression of pBAD and XIAP, both proteins counteract the apoptotic pathway and were described in PIM2-induced survival effect (data not shown) (Fox, 2003; Macdonald et al., 2006; Yan et al., 2003). In accordance with this finding and despite a strong increase in procaspase 3 protein (32 kDa size), PBs decrease the autocatalytic activity of Caspase 3 and therefore the production of p19/p17 apoptosis executors as highlighted by the low levels of cleaved PARP (data not shown) (Ponder and Boise, 2019). […]

Another assay relates to XG21. The assay can be described thus: Caspase 3 activation in XG21. It counts as cell-based, human.
Excerpt: as §3

A further assay deals with MM cell lines. The assay is described as follows: PIM2 protein expression and drug effects in MM cell lines. It counts as cell-based, human. The note with it: western blot, after proteasome inhibition. An excerpt: Using data of the Dependency Map (DepMap) portal (https://depmap.org/portal/), we evaluated mRNA expression of PIM2 in silico across >700 different malignant cell lines, including 20 MM cell lines. […] This was specific to PIM2, as PIM1 expression is not overexpress in MM cell lines (data not shown). We confirm the high expression of PIM2 protein in eight MM lines, which correlates well with RNA expression, noting however a large heterogeneity of expression (data not shown) Also, using CRISPR screening of DepMap data, dependency scores of PIM2 underline their specific importance for MM cell survival compared to all cell lines tested, and as compared to PIM1 data not shown). To evaluate potential correlations between PIM2 expression and clinicals outcomes, we analyzed TT2 cohort of the university of Arkansas and within the myeloma patient molecular subgroups. […] Our analysis of the CoMMpass cohort also as PIM2 expression above the cutoff (determined by MaxStat method) in the large dataset correlated with shorter overall survival (P=0.000573) (data not shown). […] These last result fit well with the fact that PIM2 protein expression increase after proteasome inhibition with drug as carfilzomib as show by western blot in MM cell lines (data not shown), leading to an increase of their prosurvival activity as shown described (Adam et al., 2015).

With `N[C@@H]1CCCN(c2c(/C=C3\SC(=O)NC3=O)cccc2-c2ccccc2)C1` [PIMi, AZD1208], the “p21^Cip1/WAF1 expression” value in the assay with p21^Cip1/WAF1 [1] was “maintained their p21^Cip1/WAF1 expression but in a poly-ubiquitinylated form”. Further, the “CDC25A protein in PBs” value in the assay on CDC25A is “disappeared”. Also, in the assay on MM, the “synergy of the combination AZD1208 and AZD5991” value was “hard synergy”. Besides, in the assay with ePCs, the “Caspase 3 activation” value is on record as “activation of Caspase 3 with production of the catalytic active p17 fragment”, the XIAP protein result is “decrease of XIAP protein”, the “cleaved-Caspase 9 fragment” value was “increase of cleaved-Caspase 9 fragment” and the “p21^Cip1/WAF1 expression” value is “decrease of p21^Cip1/WAF1 expression”. The “FRET signal of energy transfer p21^Cip1/WAF1 / Procaspase 3” value in [2] is reported as “abolished the signal”. Also, the “number of PBs in S-phase” value in the assay on PBs [3] is listed as “decreased drastically, in a dose-dependent manner”. In addition, in the assay on PBs [4] (PBs), the “cleaved PARP protein” value is “production of cleaved PARP protein”; the mitochondrial depolarization entry was “strong mitochondrial depolarization”; the “pBAD and XIAP protein” value was “decrease of pBAD and XIAP”. Also, the “p21^Cip1/WAF1 expression” value in the assay on p21^Cip1/WAF1 [5] is on record as “maintained their p21^Cip1/WAF1 expression but in a poly-ubiquitinylated form”.
Take `CC(C)[C@H](NC(=O)c1ccc2ccccc2n1)C(=O)N[C@@H](CC(=O)O)C(=O)COc1c(F)cccc1F` [QVD-OPH]: the rescue from apoptosis entry in assay [6] is given as “rescued from apoptosis”.
Regarding `O=C(Nc1ccc(Cl)c(C(F)(F)F)c1)NC1CCC(Oc2ccc(C(F)(F)F)cn2)CC1` (centres unmarked) [UC2288], the “Caspase 3 activation” value in the assay with PBs [4] (PBs) and with XG21 was “dose-dependent increase of Caspase 3 activation” throughout. Besides, in the assay with PBs [4] (by inhibiting p21^Cip1/WAF1 protein expression), the apoptosis induction result is “induced a Caspase 3-mediated apoptosis”.
As for `CC(C)C[C@H](NC(=O)[C@H](CCc1ccccc1)NC(=O)CN1CCOCC1)C(=O)N[C@@H](Cc1ccccc1)C(=O)N[C@@H](CC(C)C)C(=O)[C@@]1(C)CO1` [carfilzomib], in the assay with MM cell lines, the PIM2 protein expression entry is on record as “increase”.
In the case of Q-DEVD-OPH, the “viability of PBs after PIM2 inhibition” value in the assay on PBs [4] (Caspase 3 inhibitor added to PIM2-inhibited PBs) is recorded as “rescued”. Moreover, in the assay on PBs [4] (Caspase 3 inhibitor added to UC2288-treated cells), the “cell viability after UC2288” value is listed as “restores cell viability”.
